Assay [1] concerns Proteus vulgaris. Put plainly: Antibacterial activity against Proteus vulgaris at 25 ug/ml after 24 hrs agar diffusion method. It is filed as functional. The settings on record: read-out: DIZ.
The test system of assay [2] is Proteus vulgaris. Put plainly: Antibacterial activity against Proteus vulgaris at 75 ug/ml after 24 hrs agar diffusion method. The format is functional. The settings on record: read-out: DIZ. For orientation: In agar diffusion tests the substance spreads into inoculated agar from a disc or well.
The subject of assay [3] is Staphylococcus aureus. The assay is described as follows: Antibacterial activity against Staphylococcus aureus at 100 ug/ml after 24 hrs agar diffusion method. The format is functional. Particulars: read-out: DIZ.
The subject of assay [4] is Proteus mirabilis. The assay is described as follows: Antibacterial activity against Proteus mirabilis at 75 ug/ml after 24 hrs agar diffusion method. It is filed as functional. Particulars: read-out: DIZ.
For assay [5], the system named is Proteus vulgaris. The assay is described as follows: Antibacterial activity against Proteus vulgaris at 100 ug/ml after 24 hrs agar diffusion method. The format is functional. The settings on record: read-out: DIZ.
Assay [6] has as its system Salmonella typhi. Put plainly: Antibacterial activity against Salmonella typhi at 100 ug/ml after 24 hrs agar diffusion method. It is filed as functional, Salmonella enterica subsp. enterica serovar Typhi. The settings on record: Salmonella enterica, read-out: DIZ.
Assay [7] relates to Proteus mirabilis. Put plainly: Antibacterial activity against Proteus mirabilis at 50 ug/ml after 24 hrs agar diffusion method. Particulars: read-out: DIZ. It is filed as functional.
Assay [8] has as its system Proteus vulgaris. The assay is described as follows: Antibacterial activity against Proteus vulgaris at 50 ug/ml after 24 hrs agar diffusion method. It is filed as functional. Particulars: read-out: DIZ.
For assay [9], the system named is Salmonella typhi. The assay is described as follows: Antibacterial activity against Salmonella typhi at 75 ug/ml after 24 hrs agar diffusion method. It is filed as functional, Salmonella enterica subsp. enterica serovar Typhi. Particulars: Salmonella enterica, read-out: DIZ.
Assay [10] concerns Staphylococcus aureus. The assay is described as follows: Antibacterial activity against Staphylococcus aureus at 75 ug/ml after 24 hrs agar diffusion method. It is filed as functional. The settings on record: read-out: DIZ.
The test system of assay [11] is Salmonella typhi. Put plainly: Antibacterial activity against Salmonella typhi at 50 ug/ml after 24 hrs agar diffusion method. Particulars: Salmonella enterica, read-out: DIZ. It is filed as functional, Salmonella enterica subsp. enterica serovar Typhi.
Assay [12] concerns Staphylococcus aureus. The assay is described as follows: Antibacterial activity against Staphylococcus aureus at 50 ug/ml after 24 hrs agar diffusion method. The settings on record: read-out: DIZ. It is filed as functional.
Assay [13] relates to Proteus mirabilis. Put plainly: Antibacterial activity against Proteus mirabilis at 100 ug/ml after 24 hrs agar diffusion method. It is filed as functional. The settings on record: read-out: DIZ.
Assay [14] has as its system Salmonella typhi. Put plainly: Antibacterial activity against Salmonella typhi at 25 ug/ml after 24 hrs agar diffusion method. It is filed as functional, Salmonella enterica subsp. enterica serovar Typhi. The settings on record: Salmonella enterica, read-out: DIZ.
The subject of assay [15] is Staphylococcus aureus. The assay is described as follows: Antibacterial activity against Staphylococcus aureus at 25 ug/ml after 24 hrs agar diffusion method. The format is functional. The settings on record: read-out: DIZ.
For assay [16], the system named is Proteus mirabilis. Put plainly: Antibacterial activity against Proteus mirabilis at 25 ug/ml after 24 hrs agar diffusion method. It is filed as functional. Particulars: read-out: DIZ.

Turning to `CCOC(=O)[C@@H]1[C@@H]([C@H]2[C@@H](Oc3ccccc3)C(=O)N2c2ccc(OC)cc2)CN(C)[C@]12C(=O)Nc1ccccc12`, the zone of inhibition at 25 µg/mL came to 11 mm with Proteus vulgaris [1], 11 mm in the assay on Salmonella typhi [14], 14 mm with Staphylococcus aureus [15] and 12 mm in the assay with Proteus mirabilis [16]. In addition, the zone of inhibition at 75 µg/mL was 18 mm in the assay on Proteus vulgaris [2], 22 mm in the assay on Proteus mirabilis [4], 20 mm in the assay on Salmonella typhi [9] and 21 mm in the assay on Staphylococcus aureus [10]. The zone of inhibition at 100 µg/mL was determined as 26 mm in the assay with Staphylococcus aureus [3], 21 mm in the assay on Proteus vulgaris [5], 28 mm with Salmonella typhi [6] and 32 mm in the assay with Proteus mirabilis [13]. Further, the zone of inhibition at 50 µg/mL was 13 mm in the assay on Proteus mirabilis [7], 14 mm in the assay with Proteus vulgaris [8], 14 mm with Salmonella typhi [11] and 19 mm in the assay with Staphylococcus aureus [12].

In the case of `CCOC(=O)[C@@H]1[C@@H]([C@H]2[C@@H](c3ccccc3)C(=O)N2c2ccc(OC)cc2)CN(C)[C@]12C(=O)Nc1ccccc12`, the zone of inhibition at 25 µg/mL in the assay with Proteus vulgaris [1] was found to be 11 mm; in the assay on Salmonella typhi [14], 12 mm; in the assay on Staphylococcus aureus [15], 14 mm; with Proteus mirabilis [16], 11 mm. Moreover, the zone of inhibition at 75 µg/mL in the assay with Proteus vulgaris [2] was found to be 16 mm; in the assay on Proteus mirabilis [4] it was 18 mm; in the assay on Salmonella typhi [9] it was 21 mm; with Staphylococcus aureus [10] it was 23 mm. Also, the zone of inhibition at 100 µg/mL in the assay with Staphylococcus aureus [3] is 27 mm; in the assay on Proteus vulgaris [5], 20 mm; with Salmonella typhi [6], 29 mm; in the assay with Proteus mirabilis [13], 21 mm. Besides, the zone of inhibition at 50 µg/mL in the assay with Proteus mirabilis [7] is 14 mm; in the assay with Proteus vulgaris [8], 14 mm; with Salmonella typhi [11], 15 mm; in the assay with Staphylococcus aureus [12], 18 mm.

`CCOC(=O)[C@@H]1[C@@H]([C@H]2[C@@H](Oc3ccccc3)C(=O)N2c2ccc(OC)cc2)C2CCCN2[C@]12C(=O)Nc1ccccc12` (stereo not given in full): the zone of inhibition at 25 µg/mL is 19 mm in the assay on Proteus vulgaris [1], 13 mm in the assay on Salmonella typhi [14], 14 mm with Staphylococcus aureus [15] and 12 mm in the assay on Proteus mirabilis [16]. Moreover, the zone of inhibition at 75 µg/mL with Proteus vulgaris [2] came out at 27 mm; in the assay with Proteus mirabilis [4], 24 mm; in the assay with Salmonella typhi [9], 21 mm; in the assay with Staphylococcus aureus [10] it was 22 mm. The zone of inhibition at 100 µg/mL is 34 mm in the assay on Staphylococcus aureus [3], above 40 mm with Proteus vulgaris [5], 31 mm with Salmonella typhi [6] and 36 mm in the assay on Proteus mirabilis [13]. In addition, the zone of inhibition at 50 µg/mL in the assay with Proteus mirabilis [7] stood at 16 mm; in the assay with Proteus vulgaris [8], 20 mm; with Salmonella typhi [11], 16 mm; with Staphylococcus aureus [12], 18 mm.

For `CCOC(=O)[C@@H]1[C@@H]([C@H]2[C@@H](c3ccccc3)C(=O)N2c2ccc(OC)cc2)C2CCCN2[C@]12C(=O)Nc1ccccc12` (stereo not given in full), the zone of inhibition at 25 µg/mL stood at 13 mm with Proteus vulgaris [1], 11 mm in the assay on Salmonella typhi [14], 9 mm in the assay on Staphylococcus aureus [15] and 14 mm with Proteus mirabilis [16]. Besides, the zone of inhibition at 75 µg/mL in the assay on Proteus vulgaris [2] was found to be 25 mm; in the assay on Proteus mirabilis [4], 21 mm; with Salmonella typhi [9], 18 mm; in the assay with Staphylococcus aureus [10] it was 21 mm. For the same compound, the zone of inhibition at 100 µg/mL in the assay with Staphylococcus aureus [3] is 31 mm; in the assay with Proteus vulgaris [5] it was above 40 mm; in the assay on Salmonella typhi [6], 26 mm; in the assay with Proteus mirabilis [13], 32 mm. For the same compound, the zone of inhibition at 50 µg/mL in the assay on Proteus mirabilis [7] turned out to be 18 mm; in the assay on Proteus vulgaris [8] it was 21 mm; in the assay with Salmonella typhi [11], 14 mm; in the assay with Staphylococcus aureus [12], 16 mm.

As for `CN(C)[C@@H]1C(O)=C(C(N)=O)C(=O)[C@@]2(O)C(O)=C3C(=O)c4c(O)cccc4[C@@](C)(O)[C@H]3C[C@@H]12` [TETRACYCLINE], the zone of inhibition at 25 µg/mL in the assay with Proteus vulgaris [1], in the assay with Salmonella typhi [14], in the assay with Staphylococcus aureus [15] and in the assay on Proteus mirabilis [16] was 18 mm in each case. Moreover, the zone of inhibition at 75 µg/mL in the assay on Proteus vulgaris [2], with Proteus mirabilis [4], in the assay on Salmonella typhi [9] and in the assay with Staphylococcus aureus [10] was 28 mm each time. Also, the zone of inhibition at 100 µg/mL in the assay with Staphylococcus aureus [3], in the assay with Proteus vulgaris [5], with Salmonella typhi [6] and in the assay on Proteus mirabilis [13] was above 40 mm throughout. The zone of inhibition at 50 µg/mL in the assay on Proteus mirabilis [7] was 24 mm; with Proteus vulgaris [8], 24 mm; in the assay with Salmonella typhi [11] it was 22 mm; with Staphylococcus aureus [12] it was 22 mm.
